# Test results taken from US11857601B2, “Pharmaceutical composition for cancer treatment comprising fusion protein including IL-2 protein and CD80 protein and anticancer drug” (GI INNOVATION, INC., priority 2020, dated 2024).
# How the values were obtained:
# HCT116 cells = assay: Cancer cell killing, GI-101 and Pertuzumab, HCT116 with NK cells; format: cell-based, human; settings: GI-101 0.4-100 nM, Pertuzumab 16.9 nM, 24 hours
# Source text: This experiment was to evaluate the effect of killing cancer cells by treating HCT116 cells (human colon cancer cells) with the test substance GI-101 alone or in combination with Pertuzumab substance in an in vitro environment.
# HCT116 cells were purchased from the Korea cell line bank and cultured in McCoy's 5A medium (ATCC) containing 10% FBS (Gibco) and 1% antibiotic/antifungal agent (Gibco). For use in cancer cell killing test, the cells were harvested using trypsin (Gibco), and then suspended in McCoy's 5A medium, and then dead cells and debris were removed using Ficoll (GE Healthcare Life Sciences) solution. The cells suspended in McCoy's 5A medium were carefully layered on ficoll solution. […]
# In order to identify the effect of killing the cells, a CytoTox Green reagent ([…]™ CytoTox Green, Satorius) that binds to the DNA of cells to be killed was prepared in 1 μl per 1 mL of RPMI1640 medium containing 5% human AB serum (Sigma). The prepared medium was used for dilution of the test substance, and the effect of killing the cells could be quantitatively identified by staining the cells to be killed when the test substance was co-cultured with cancer cell lines and PBMCs. […]
# [1] = system: NCl-H292 cancer cell line with human PBMCs; assay: T cell activity inhibition by cancer cells expressing PD-L1 and CTLA-4 (IFN-γ ELISA); format: cell-based; settings: 50 nM, 3 days
# Method: NCl-H292 cancer cell line expressing PD-L1 and CTLA-4 was cultured for 3 hours in a culture medium containing 10 μg/ml Mitomycin C (Sigma), and then Mitomycin C was removed by washing with the culture medium. Thereafter, 5×10^4 cells of the Mitomycin C-treated NCl-H292 cancer cell line were incubated with 1×10^5 cells of human PBMCs in a 96-well microplate. Here, treatment with 5 μg/ml of PHA (Sigma) was performed for T cell activity. […] After 3 days, the supernatant of the cell culture was collected and the amount of IFN-γ was quantified using an ELISA kit (Biolegend).
# As a positive control, human PBMCs stimulated with PHA in the absence of the Mitomycin C-treated NCl-H292 cancer cell line were used; and as a negative control, human PBMCs stimulated with PHA in the presence of the Mitomycin C-treated NCl-H292 cancer cell line were used. An experimental method using the IFN-7 ELISA kit was carried out in the same manner as in Experimental Example 9.3.
# CT-26 cancer cell line = assay: GI101 in mice transplanted with CT-26 (Exp. Ex. 16.1); format: in vivo, BALB/c mice
# Method: The tumor size was measured daily.
substance,measurement,setting,value
"GI101: fusion protein: human CD80 fragment, Ig hinge, Fc domain, linker, IL-2 variant (2M) (R38A, F42A); SEQ ID NO: 9",effect of killing cancer cells,HCT116 cells,excellent effect of killing cancer cells
same,immune response inhibited by the cancer cell line overexpressing PD-L1 (IFN-γ),[1],effectively activated
same,signaling of CTLA-4 expressed on effector T cells,[1],inhibited
same,tumor inhibitory effect,"CT-26 cancer cell line; GI101 0.1 mg/kg, compared with anti-PD-1 antibody group (p<0.05)",significant tumor inhibitory effect
same,Tumor growth inhibition,"CT-26 cancer cell line; GI101 0.1 or 1 mg/kg, anti-PD-1 5 mg/kg, anti-CTLA-4 5 mg/kg i.v., vs negative control",significant tumor growth inhibition
